Results from patent US20030073832A1, “Novel aminophenyl ketone derivatives” (priority 2001, published 2003).

How the values were obtained:
[1] = test system: IL-1β; test: Inhibition of IL-1β secretion from LPS stimulated peripheral blood mononuclear cells; assay type: cell-based; details: PBMC; LPS stimulated human peripheral blood mononuclear cells, 18 hours, ELISA; read-out: The median inhibition concentration (IC50, nM) of IL-1β
Method: (§1) To study the effect of compounds of the present invention in vitro the inhibition of the IL-1β and TNF-α secretion was measured using the following procedure:
(§2) Cytokine production was measured in the media from lipopolysaccharide (LPS) stimulated peripheral blood mononuclear cells. The mononuclear cells were isolated from human peripheral blood by Lymphoprep® (Nycomed, Norway) fractionation and suspended in RPMI 1640 (growth medium) with foetal calf serum (FCS, 2%), at a concentration of 5×10^5 cells/ml. The cells were incubated in 24-well tissue culture plates in 1 ml aliquots. Test compounds were dissolved in dimethylsulfoxide (DMSO, 10 mM) and were diluted with the medium. Compounds were added to the cells for 30 minutes, then LPS ([…] final concentration) was added. The plates were incubated for 18 hours, and the concentration of IL-1β and TNF-α in the medium was determined by enzyme-linked immunosorbent assays. The median inhibitory concentrations (IC50) of the compounds were calculated.

[2] = test system: TNF-α; test: Inhibition of TNF-α secretion from LPS stimulated peripheral blood mononuclear cells; assay type: cell-based; details: PBMC; LPS stimulated human peripheral blood mononuclear cells, 18 hours, ELISA; read-out: The median inhibition concentration (IC50, nM) of TNF-α
Method: as §1, §2

[3] = test system: PMN-superoxide; test: Inhibition of PMN superoxide secretion (ferricytochrome C reduction); assay type: cell-based; details: human PMN granulocytes primed with TNF-α, stimulated with fMLP; read-out: The median inhibition concentration (IC50, nM) of PMN-superoxide
Method: The compounds of the present invention also show similar activities in the ability to inhibit PMN (polymorphonuclear) superoxide secretion which is also indicative of potentially useful anti-inflammatory drugs. The compounds were tested using the following procedure:
Human polymorphonuclear (PMN) granulocytes were isolated from human blood by dextran sedimentation, Lymphoprep® fractionation and hypotonic lysis of contaminating erythrocytes.
Superoxide anion generation was measured as the superoxide dismutase inhibitable reduction of ferricytochrome C (Madhu, S.B. et al, Inflammation, 16, 241, (1992)). The cells were suspended in Hanks' balanced salt solution, and incubated for 10 minutes at 37° C. with test compounds. The cells were primed by the addition of TNF-α (3 ng/ml final concentration) for 10 minutes, and then ferricytochrome C, (final concentration 750 μg/ml), bovine serum albumin (BSA, final concentration 1 mg/ml) and formyl-methionyl-leucyl-phenylalanine (fMLP, final concentration 10^−7 M) were added for 3 minutes. The cells were chilled on ice, and were spun down. The optical densities in the cell-free supernatant was measured in a spectrophotometer. The median inhibitory concentration (IC50) of the compounds was calculated.

[4] = biological target: T1, p38α MAP kinase (Homo sapiens, UniProt Q16539); test: p38α MAP kinase assay; assay type: biochemical; details: immunoprecipitated activated FLAG-p38α from COS-1 cells, GST-ATF-2 substrate; read-out: p38 MAP kinase IC50
T1 construct: made in house; host or cells: COS-1 cells (transient co-transfection, anti-FLAG immunoprecipitation)
T1 sequence (Q16539 whole entry): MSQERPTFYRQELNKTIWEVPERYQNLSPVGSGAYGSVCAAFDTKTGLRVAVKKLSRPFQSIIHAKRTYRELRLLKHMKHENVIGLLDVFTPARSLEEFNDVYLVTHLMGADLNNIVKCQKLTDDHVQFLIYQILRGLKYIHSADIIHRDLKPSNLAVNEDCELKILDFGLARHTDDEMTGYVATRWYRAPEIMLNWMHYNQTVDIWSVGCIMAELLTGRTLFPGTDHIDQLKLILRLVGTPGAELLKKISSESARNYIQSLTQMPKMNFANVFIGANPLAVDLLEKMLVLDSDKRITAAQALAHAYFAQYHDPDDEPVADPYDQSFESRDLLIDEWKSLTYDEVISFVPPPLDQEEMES
Method: COS-1 cells (derived from African green monkey kidney fibroblast-like cell containing wild-type T antigen under control of the SV40 promotor) were obtained from ATCC (ATCC no. CRL-1650) and grown in growth medium (DMEM without phenolred, 10% FCS, 2 mM L-glutamine, 100U penicillin and 100 μg streptomycin/ml) at 37° C. with 5% CO2. The cells were passaged twice a week by trypsination (0.25% trypsin, 1 mM EDTA in PBS) and were split 1:10. The medium was changed every second or third day. The cell line was regularly tested with the Mycoplasma PCR Primer Set (Stratagene) and found to be free of Mycoplasma. Tissue culture media, FCS, L-glutamine and penicilin and streptomycin are from Bribco BRL, Gaithersburg, Md., USA.
Transient Expression of COS-1 Cells
On day one COS-1 cells were seeded in 143 cm^2 petridish with a density of 2×10^4celler/cm^2 in growth medium. At day 2 the cells were co-transfected with 5 μg (total) of experimental plasmid DNA, expressing the FLAG-p38α and FLAG-MKK6(EE). The plasmids were introduced into the COS-1 cells in serum-free medium using DOTAP™ (Boehringer-Mannheim, Mannheim, Germany). Plasmid DNA was prepared and purified using the QIAGEN EndoToxin-free Maxiprep-500 kit (Hilden, Germany). Briefly, DNA and DOTAP™ were mixed for exactly 15 min. at 37° C. in the CO2 incubator. […]

Row | SMILES | IC50 [1] [nM] | IC50 [2] [nM] | IC50 [3] [nM] | IC50 [4] [nM]
1 | Cc1ccccc1Nc1ccc(C(=O)c2sccc2Cl)c(Cl)c1 [Compound 101, 4-(2-tolylamino)-2-chlorophenyl 3-chloro-2-thienyl ketone] | 72 | 17 | 6.3 | 93.3
2 | Cc1ccccc1C(=O)c1ccc(Nc2ccccc2N)cc1Cl [Ref. comp., 4-(2-aminophenylamino)-2-chloro-2′-methylbenzophenone, reference compound] | 13 | 7.1 | 5 | –
